Laboratory results: PubChem BioAssay (NCI)
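Where inhibition never reached the appropriate level, the endpoint shown equals the highest concentration tested. Otherwise, values were interpolated linearly from a five-concentration, 48-hour dose response in 96-well plates. GI50 = concentration required for 50% inhibition of growth. TGI: concentration producing complete growth inhibition.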

How the values were obtained:
Experiment in all cases: inhibition of tumour cell growth, NCI panel, 48 h
OVCAR-5 ovarian = system: OVCAR-5 ovarian
SN12C renal = system: SN12C renal
EKVX NSCLC = system: EKVX NSCLC
NCI-H23 lung = system: NCI-H23 lung
SK-OV-3 ovarian = system: SK-OV-3 ovarian
MALME-3M melanoma = system: MALME-3M melanoma
MDA-MB-435 = system: MDA-MB-435
KM12 colon = system: KM12 colon
CAKI-1 renal = system: CAKI-1 renal
U251 CNS = system: U251 CNS

## CNC(C)C(O)c1ccc2oc3cc(=O)c4ccccc4c-3nc2c1 (stereo unspecified)
OVCAR-5 ovarian
  TGI: > 100 µM
SN12C renal
  TGI: 25.1 µM
EKVX NSCLC
  TGI: > 100 µM
NCI-H23 lung
  TGI: > 100 µM
SK-OV-3 ovarian
  TGI: > 100 µM
MALME-3M melanoma
  TGI: 19.9 µM
MDA-MB-435
  TGI: 3.54 µM
KM12 colon
  TGI: 49.8 µM
CAKI-1 renal
  TGI: 29.6 µM
U251 CNS
  TGI: 22.4 µM

## C(=Nc1ccc2c(c1)Cc1ccccc1-2)c1ccccn1
OVCAR-5 ovarian
  TGI: > 100 µM
SN12C renal
  TGI: 90.3 µM
EKVX NSCLC
  TGI: > 100 µM
NCI-H23 lung
  TGI: > 100 µM
MALME-3M melanoma
  TGI: > 100 µM
MDA-MB-435
  TGI: > 100 µM
KM12 colon
  TGI: > 100 µM
CAKI-1 renal
  TGI: > 100 µM
U251 CNS
  TGI: > 100 µM

## O=c1cc(CF)[nH]c(=S)[nH]1
OVCAR-5 ovarian
  TGI: > 100 µM
SN12C renal
  TGI: > 100 µM
EKVX NSCLC
  TGI: > 100 µM
NCI-H23 lung
  TGI: > 100 µM
MALME-3M melanoma
  TGI: > 100 µM
MDA-MB-435
  TGI: > 100 µM
KM12 colon
  TGI: > 100 µM
CAKI-1 renal
  TGI: > 100 µM
U251 CNS
  TGI: > 100 µM

## COc1ccc(/C=N/n2cnc3c(c2=O)SC(=C(C#N)C#N)N3c2ccccc2)cc1
OVCAR-5 ovarian
  TGI: > 100 µM
NCI-H23 lung
  TGI: > 100 µM
SK-OV-3 ovarian
  TGI: > 100 µM
KM12 colon
  TGI: > 100 µM
U251 CNS
  TGI: > 100 µM

## N[C@H](Cc1ccc2oc3cc(=O)c4ccccc4c-3nc2c1)C(=O)O
OVCAR-5 ovarian
  TGI: > 100 µM
SN12C renal
  TGI: > 100 µM
EKVX NSCLC
  TGI: > 100 µM
NCI-H23 lung
  TGI: > 100 µM
SK-OV-3 ovarian
  TGI: > 100 µM
MALME-3M melanoma
  TGI: 38.5 µM
MDA-MB-435
  TGI: 30.3 µM
KM12 colon
  TGI: > 100 µM
CAKI-1 renal
  TGI: > 100 µM
U251 CNS
  TGI: > 100 µM

## CCCn1cnc2c(SCc3ccc(Cl)cc3)nc(N)nc21
OVCAR-5 ovarian
  TGI: > 100 µM
SN12C renal
  TGI: 83.3 µM
EKVX NSCLC
  TGI: 43.5 µM
NCI-H23 lung
  TGI: > 100 µM
SK-OV-3 ovarian
  TGI: > 100 µM
MALME-3M melanoma
  TGI: 65.8 µM
MDA-MB-435
  TGI: 57.8 µM
KM12 colon
  TGI: 58.9 µM
CAKI-1 renal
  TGI: 82 µM
U251 CNS
  TGI: 74.5 µM

## O=C(N[C@@H](Cc1coc2ccccc12)B(O)O)[C@@H]1C[C@H]2CC[C@@H]1O2
OVCAR-5 ovarian
  GI50: 6.8 µM
  TGI: > 100 µM
SN12C renal
  GI50: 9.24 µM
  TGI: > 100 µM
EKVX NSCLC
  GI50: 22.7 µM
  TGI: > 100 µM
NCI-H23 lung
  GI50: 9.18 µM
  TGI: > 100 µM
SK-OV-3 ovarian
  GI50: 9.17 µM
  TGI: > 100 µM
MALME-3M melanoma
  GI50: 3.07 µM
  TGI: 20.8 µM
MDA-MB-435
  GI50: 1.76 µM
  TGI: 4.04 µM
KM12 colon
  GI50: 11.4 µM
  TGI: 57.9 µM
CAKI-1 renal
  GI50: 4.47 µM
  TGI: > 100 µM
U251 CNS
  GI50: 17.8 µM
  TGI: > 100 µM

## CCCO[C@@H]1[C@@H](OC(C)=O)[C@@H](OC(C)=O)C(C)(C)/C=C/[C@H](C)C(=O)[C@@]2(OC(C)=O)C[C@@](C)(OC(C)=O)[C@H](OC(C)=O)[C@@H]2[C@H]2OC(=O)CC[C@@]12OC(=O)c1ccccc1
OVCAR-5 ovarian
  TGI: > 25 µM
SN12C renal
  TGI: > 25 µM
EKVX NSCLC
  TGI: > 25 µM
NCI-H23 lung
  TGI: > 25 µM
SK-OV-3 ovarian
  TGI: > 25 µM
MALME-3M melanoma
  TGI: > 25 µM
MDA-MB-435
  TGI: > 25 µM
KM12 colon
  TGI: > 25 µM
CAKI-1 renal
  TGI: > 25 µM
U251 CNS
  TGI: > 25 µM

## COc1ccc(C2COc3c(ccc(O)c3C)C2)cc1OC (stereo unspecified)
OVCAR-5 ovarian
  TGI: > 162 µM
SN12C renal
  TGI: > 200 µM
EKVX NSCLC
  TGI: > 200 µM
NCI-H23 lung
  TGI: > 200 µM
SK-OV-3 ovarian
  TGI: > 200 µM
MALME-3M melanoma
  TGI: > 200 µM
KM12 colon
  TGI: > 200 µM
CAKI-1 renal
  TGI: > 200 µM
U251 CNS
  TGI: > 200 µM

## CN(C)CCNC(=O)c1cccc2[nH]c(-c3ccccn3)nc12
OVCAR-5 ovarian
  TGI: > 100 µM
SN12C renal
  TGI: > 100 µM
EKVX NSCLC
  TGI: > 100 µM
NCI-H23 lung
  TGI: > 100 µM
SK-OV-3 ovarian
  TGI: > 100 µM
MALME-3M melanoma
  TGI: > 65.4 µM
KM12 colon
  TGI: > 100 µM
CAKI-1 renal
  TGI: 78.1 µM
U251 CNS
  TGI: > 100 µM

## Nc1nc(SCc2ccccc2Cl)c2[nH]cnc2n1
OVCAR-5 ovarian
  TGI: > 100 µM
SN12C renal
  TGI: > 100 µM
EKVX NSCLC
  TGI: > 100 µM
NCI-H23 lung
  TGI: > 100 µM
SK-OV-3 ovarian
  TGI: > 100 µM
MALME-3M melanoma
  TGI: > 100 µM
KM12 colon
  TGI: > 100 µM
U251 CNS
  TGI: > 100 µM

## C/C(=N\NC(=S)N1CCCC1)c1nc2ncccc2[nH]1
OVCAR-5 ovarian
  TGI: 20.7 µM
SN12C renal
  TGI: > 100 µM
NCI-H23 lung
  TGI: 22.1 µM
SK-OV-3 ovarian
  TGI: 54.2 µM
MALME-3M melanoma
  TGI: 63.9 µM
MDA-MB-435
  TGI: > 100 µM
KM12 colon
  TGI: 23.8 µM
CAKI-1 renal
  TGI: 37.1 µM
U251 CNS
  TGI: 13.5 µM

## Cc1nc2ccc(S(=O)(=O)Nc3nccs3)cc2c(=O)n1NS(=O)(=O)c1nccs1
OVCAR-5 ovarian
  TGI: > 100 µM
SN12C renal
  TGI: > 100 µM
EKVX NSCLC
  TGI: > 100 µM
NCI-H23 lung
  TGI: > 100 µM
SK-OV-3 ovarian
  TGI: > 100 µM
MALME-3M melanoma
  TGI: > 100 µM
MDA-MB-435
  TGI: > 100 µM
KM12 colon
  TGI: > 100 µM
CAKI-1 renal
  TGI: > 100 µM
U251 CNS
  TGI: > 100 µM

## C=CCCC1(C)CCCNC1=S (stereo unspecified)
OVCAR-5 ovarian
  TGI: > 100 µM
SN12C renal
  TGI: > 100 µM
EKVX NSCLC
  TGI: > 100 µM
NCI-H23 lung
  TGI: > 100 µM
SK-OV-3 ovarian
  TGI: > 100 µM
MALME-3M melanoma
  TGI: > 100 µM
KM12 colon
  TGI: > 100 µM
U251 CNS
  TGI: > 100 µM

## COc1ccc2c(c1)c(-c1nc(-c3c[nH]c4ncccc34)cs1)cn2CCCCN1CCCCC1
SK-OV-3 ovarian
  GI50: 1.75 µM
  TGI: 3.18 µM

## CCCCC1C=Cn2c(=O)oc3c(OC(C)C)c(C)c(O)c1c32 (stereo unspecified)
OVCAR-5 ovarian
  TGI: 15.1 µM
SN12C renal
  TGI: 3.71 µM
EKVX NSCLC
  TGI: 6.83 µM
NCI-H23 lung
  TGI: 4.71 µM
SK-OV-3 ovarian
  TGI: 13.3 µM
MALME-3M melanoma
  TGI: 4.1 µM
MDA-MB-435
  TGI: 3.38 µM
KM12 colon
  TGI: 8.26 µM
CAKI-1 renal
  TGI: 2.34 µM
U251 CNS
  TGI: 11 µM

## O=C1c2ccccc2OCC12OC21C=CC(Cl)=CC1 (stereo unspecified)
OVCAR-5 ovarian
  TGI: 81.3 µM
SN12C renal
  TGI: 35.3 µM
EKVX NSCLC
  TGI: 51.8 µM
NCI-H23 lung
  TGI: 37.9 µM
SK-OV-3 ovarian
  TGI: > 100 µM
MALME-3M melanoma
  TGI: 44.8 µM
MDA-MB-435
  TGI: 51.5 µM
KM12 colon
  TGI: 41.9 µM
U251 CNS
  TGI: 44.4 µM

## CCC(=O)OCN(C)c1nc(N(C)COC(=O)CC)nc(N(C)COC(=O)CC)n1
OVCAR-5 ovarian
  TGI: > 100 µM
SN12C renal
  TGI: > 100 µM
NCI-H23 lung
  TGI: > 100 µM
SK-OV-3 ovarian
  TGI: > 100 µM
MALME-3M melanoma
  TGI: > 100 µM
MDA-MB-435
  TGI: > 100 µM
KM12 colon
  TGI: > 100 µM
CAKI-1 renal
  TGI: > 100 µM
U251 CNS
  TGI: > 100 µM
